Assay results as given in PubChem BioAssay AID248 (DTP/NCI, 2004).
Values joined by “and” are separate entries in the source; they are usually repeats but may differ in a detail not shown here. Equal values may be shown once. Toxic doses and inconclusive results are not listed. Rule as the data show it: active = T/C of 150% or more; inactive = T/C below 125%.

System: L1210 leukemia ip in BDF1 mice, survival T/C
Experiment: NCI In Vivo Anticancer Drug Screen. Data for tumor model L1210 Leukemia (intraperitoneal) in B6D2F1 (BDF1) mice
Conditions: endpoint: mean survival time, higher = longer survival
Procedure, shortened: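 Tumor cells were implanted, animals were treated, and survival was followed. The result divides the treated measurement by the vehicle-control measurement.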

[1] = dose: 100.0 mg/kg/injection, schedule: Q01DX009 (ip), vehicle: saline with Tween-80
[2] = dose: 200.0 mg/kg/injection, schedule: Q01DX009 (ip), vehicle: saline with Tween-80
[3] = dose: 400.0 mg/kg/injection, schedule: Q01DX009 (ip), vehicle: saline with Tween-80
[4] = dose: 100.0 mg/kg/injection, schedule: Q01DX001 (ip), vehicle: saline
[5] = dose: 200.0 mg/kg/injection, schedule: Q01DX001 (ip), vehicle: saline
[6] = dose: 25.0 mg/kg/injection, schedule: Q01DX009 (ip), vehicle: water
[7] = dose: 50.0 mg/kg/injection, schedule: Q01DX009 (ip), vehicle: water
[8] = dose: 100.0 mg/kg/injection, schedule: Q01DX009 (ip), vehicle: water
[9] = dose: 400.0 mg/kg/injection, schedule: Q01DX001 (ip), vehicle: saline
[10] = dose: 100.0 mg/kg/injection, schedule: Q01DX009 (ip), vehicle: Klucel (hydroxypropylcellulose) (HPC)
[11] = dose: 100.0 mg/kg/injection, schedule: Q04DX003 (ip), vehicle: saline with Tween-80
[12] = dose: 200.0 mg/kg/injection, schedule: Q01DX009 (ip), vehicle: Klucel (hydroxypropylcellulose) (HPC)
[13] = dose: 200.0 mg/kg/injection, schedule: Q04DX003 (ip), vehicle: saline with Tween-80
[14] = dose: 400.0 mg/kg/injection, schedule: Q01DX009 (ip), vehicle: Klucel (hydroxypropylcellulose) (HPC)
[15] = dose: 400.0 mg/kg/injection, schedule: Q04DX003 (ip), vehicle: saline with Tween-80
[16] = dose: 100.0 mg/kg/injection, schedule: Q04DX003 (ip), vehicle: Klucel (hydroxypropylcellulose) (HPC)
[17] = dose: 200.0 mg/kg/injection, schedule: Q04DX003 (ip), vehicle: Klucel (hydroxypropylcellulose) (HPC)
[18] = dose: 400.0 mg/kg/injection, schedule: Q04DX003 (ip), vehicle: Klucel (hydroxypropylcellulose) (HPC)

Measured: T/C

CCCCCC(=O)N(CC)C(=NCC)c1ccc(NC(=O)c2ccc(C(=O)Nc3ccc(C(=NCC)N(CC)C(=O)CCCCC)cc3)cc2)cc1
inactive: dose: 3.12 mg/kg/injection, schedule: Q01DX015 (ip), vehicle: methylcellulose (MC) 100 % of control | dose: 6.25 mg/kg/injection, schedule: Q01DX015 (ip), vehicle: methylcellulose (MC) 102 % of control | dose: 12.5 mg/kg/injection, schedule: Q01DX015 (ip), vehicle: methylcellulose (MC) 94 % of control | dose: 25.0 mg/kg/injection, schedule: Q01DX015 (ip), vehicle: methylcellulose (MC) 88 % of control | dose: 50.0 mg/kg/injection, schedule: Q01DX015 (ip), vehicle: methylcellulose (MC) 100 % of control | dose: 100.0 mg/kg/injection, schedule: Q01DX015 (ip), vehicle: methylcellulose (MC) 100 % of control | dose: 200.0 mg/kg/injection, schedule: Q01DX015 (ip), vehicle: methylcellulose (MC) 90 % of control | dose: 400.0 mg/kg/injection, schedule: Q01DX015 (ip), vehicle: methylcellulose (MC) 90 % of control

C=CCOC(=O)CCCCCCCCCCC
inactive: [1] 107 % of control | [2] 107 % of control | [3] 96 % of control

C=CCSc1ccccc1C
inactive: [4] 95 % of control | [5] 95 % of control

OCC[CH2][Pb]([c]1ccccc1)([c]1ccccc1)[c]1ccccc1
inactive: dose: 3.12 mg/kg/injection, schedule: Q04DX003 (ip), vehicle: Klucel (hydroxypropylcellulose) (HPC) 94 % of control | dose: 6.25 mg/kg/injection, schedule: Q04DX003 (ip), vehicle: Klucel (hydroxypropylcellulose) (HPC) 97 % of control

C/C=C/C(OCC)OCC
inactive: [6] 105 % of control | [7] 111 % of control | [8] 106 % of control

O=c1/c(=C\c2ccc(Cl)c(Cl)c2)sc2n1CCN=2
inactive: [4] 86 % of control | [9] 93 % of control

O=C1c2ccccc2C(=O)N1C1CCC(CO)C1 (centres undefined)
inactive: dose: 100.0 mg/kg/injection, schedule: Q01DX001 (ip), vehicle: carboxymethylcellulose (CMC) 106 % of control | dose: 200.0 mg/kg/injection, schedule: Q01DX001 (ip), vehicle: carboxymethylcellulose (CMC) 102 % of control | dose: 400.0 mg/kg/injection, schedule: Q01DX001 (ip), vehicle: carboxymethylcellulose (CMC) 91 % of control

CC1(c2ccco2)NC(=O)NC1=O (centres undefined)
inactive: [10] 94 % of control | [1] 91 % of control | [11] 111 % of control and 101 % of control | [12] 100 % of control | [2] 95 % of control | [13] 104 % of control and 114 % of control | [14] 105 % of control | [3] 98 % of control | [15] 111 % of control and 101 % of control

O=C(O)c1c(Br)c(Br)c(Br)c(Br)c1C(=O)Nc1cccc(C(F)(F)F)c1
inactive: [10] 107 % of control | [12] 108 % of control | [14] 107 % of control

Cc1ccc([N+](=O)[O-])cc1NC(=O)Sc1ccc(C(C)(C)C)cc1C
inactive: dose: 100.0 mg/kg/injection, schedule: Q04DX002 (ip), vehicle: saline 101 % of control | dose: 200.0 mg/kg/injection, schedule: Q04DX002 (ip), vehicle: saline 88 % of control | dose: 400.0 mg/kg/injection, schedule: Q04DX002 (ip), vehicle: saline 101 % of control

CC(C)N(C(=S)SC(=S)N(C(C)C)C(C)C)C(C)C
inactive: dose: 50.0 mg/kg/injection, schedule: Q04DX003 (ip), vehicle: Klucel (hydroxypropylcellulose) (HPC) 93 % of control | [16] 90 % of control | [17] 96 % of control

Nc1ccc(N(S(=O)(=O)c2ccccc2)S(=O)(=O)c2ccccc2)nc1
inactive: [10] 95 % of control | [16] 98 % of control | [12] 100 % of control | [17] 97 % of control | [14] 106 % of control | [18] 103 % of control

CC(C)/[N+]([O-])=C/C=C/c1ccccc1
inactive: [16] 96 % of control | [17] 97 % of control | [18] 100 % of control

O=S(=O)(F)c1ccc(-c2cc(Cl)c3c(Br)cc(Br)cc3n2)cc1
inactive: [16] 100 % of control | [17] 94 % of control | [18] 102 % of control

CNC1CC(N)C(O)C(OC2OC(CO)C(O)C3OC4(OC(C(N)CO)C(O)C(O)C4O)OC23)C1O (centres undefined)
inactive: dose: 2.2 mg/kg/injection, schedule: Q01DX Z (ip), vehicle: saline 97 % of control | dose: 3.3 mg/kg/injection, schedule: Q01DX Z (ip), vehicle: saline 94 % of control | dose: 5.0 mg/kg/injection, schedule: Q01DX Z (ip), vehicle: saline 89 % of control | dose: 7.6 mg/kg/injection, schedule: Q01DX Z (ip), vehicle: saline 94 % of control

C/C(C/C(C)=N/O)=N/O.C/C(C/C(C)=N/O)=N\O.[Cl][Rh][Cl]
inactive: [6] 100 % of control | [7] 97 % of control | [8] 97 % of control | dose: 200.0 mg/kg/injection, schedule: Q01DX009 (ip), vehicle: water 100 % of control | dose: 400.0 mg/kg/injection, schedule: Q01DX009 (ip), vehicle: water 94 % of control

COc1cc2ccc(CCN)cc2cc1OC
inactive: dose: 12.5 mg/kg/injection, schedule: Q01DX009 (ip), vehicle: saline with Tween-80 101 % of control | dose: 25.0 mg/kg/injection, schedule: Q01DX009 (ip), vehicle: saline with Tween-80 101 % of control | dose: 50.0 mg/kg/injection, schedule: Q01DX009 (ip), vehicle: saline with Tween-80 105 % of control

O=C1C2OC2(c2ccccc2)C(=O)C2OC12c1ccccc1 (centres undefined)
inactive: dose: 75.0 mg/kg/injection, schedule: Q01DX001 (ip), vehicle: Klucel (hydroxypropylcellulose) (HPC) 96 % of control | dose: 150.0 mg/kg/injection, schedule: Q01DX001 (ip), vehicle: Klucel (hydroxypropylcellulose) (HPC) 87 % of control | dose: 300.0 mg/kg/injection, schedule: Q01DX001 (ip), vehicle: Klucel (hydroxypropylcellulose) (HPC) 91 % of control

CC(=O)c1cccc(OC(=O)c2ccccc2)c1
inactive: dose: 50.0 mg/kg/injection, schedule: Q01DX001 (ip), vehicle: saline 112 % of control | [4] 106 % of control | [5] 104 % of control | [9] 104 % of control

CN1CCC=C(CN2c3ccccc3Sc3ccc(Cl)cc32)C1
inactive: dose: 12.5 mg/kg/injection, schedule: Q01DX009 (ip), vehicle: saline 119 % of control | dose: 12.5 mg/kg/injection, schedule: Q04DX003 (ip), vehicle: saline 101 % of control | dose: 16.5 mg/kg/injection, schedule: Q04DX003 (ip), vehicle: saline 98 % of control | dose: 25.0 mg/kg/injection, schedule: Q01DX009 (ip), vehicle: saline 113 % of control | dose: 25.0 mg/kg/injection, schedule: Q04DX003 (ip), vehicle: saline 105 % of control | dose: 37.5 mg/kg/injection, schedule: Q04DX003 (ip), vehicle: saline 105 % of control | dose: 50.0 mg/kg/injection, schedule: Q01DX009 (ip), vehicle: saline 114 % of control | dose: 50.0 mg/kg/injection, schedule: Q04DX003 (ip), vehicle: saline 110 % of control

CCOC(=O)C1=C(O)c2c(sc(C)c2-c2ccccc2)N(S(=O)(=O)c2ccc(C)cc2)CC1
inactive: dose: 50.0 mg/kg/injection, schedule: Q04DX003 (ip), vehicle: saline with Tween-80 98 % of control | [11] 93 % of control | [13] 93 % of control | [15] 98 % of control
